Data from patent publication US9937194B1, “Compounds and methods for treating inflammatory diseases” (priority 2009, dated 2018).
In brackets after ≈: the same amount, converted by molar mass. Several values for one entry are separate records, joined by “and”; a condition that tells them apart may be missing. Equal entries are not always repeated.

How the values were obtained:
TNFα = assay: LPS-induced TNFα release in PMA-differentiated U937 cells (ELISA); format: cell-based, human; conditions: for TNFα inhibition (%): test concentration not given
Procedure, shortened: (§1)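 PMA-differentiated U937 macrophage-like cells were pretreated with compound for 1 hr, then stimulated with LPS (100 ng/ml) for 4 hrs. Released IL-8 and TNFα were quantified by sandwich ELISA. Values are means of three experiments ± SEM.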

E. faecalis ATCC 29212 = assay: MIC; format: cell-based
K. pneumonia 13883 = assay: MIC; format: cell-based; conditions: in µg/mL
[1] = format: cell-based; conditions: test concentration not given
MMP9 [2] = assay: PMA-induced MMP9 expression in U937 cells (gelatin zymography); format: cell-based, human; conditions: test concentration not given; bracketed second value not explained
IL-8 = assay: LPS-induced IL-8 release in PMA-differentiated U937 cells (ELISA); format: cell-based, human; conditions: for IL-8 inhibition (%): test concentration not given
Procedure, shortened: as §1

E. coli ATCC 25922 = assay: MIC; format: cell-based; conditions: in µg/mL
[3] = system: S. aureus ATCC 29213 (MSSA) MLS-S; assay: MIC; format: cell-based
[4] = system: S. typhimurium ATCC 14028; assay: MIC; format: cell-based; conditions: in µg/mL
HDAC activity = assay: H2O2-induced reduction of HDAC activity in PMA-differentiated U937 cells; format: cell-based, human; conditions: for restoration of H2O2-reduced HDAC activity (%): test concentration not given, bracketed second value not explained
Procedure, shortened: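 U937 cells PMA-differentiated for 3 days, pretreated with compound for 20 min, then exposed to 200 μM H2O2 for 4 h with Fluor de Lys substrate present. Whole-cell HDAC activity measured fluorimetrically. Data expressed as fold change versus H2O2-only control, mean of four experiments ± SEM.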

S. pneumoniae ATCC 49619 = assay: MIC; format: cell-based
P. aeruginosa ATCC 27853 = assay: MIC; format: cell-based
[5] = system: N. gonorrhoeae ATCC 49226; assay: MIC; format: cell-based; parameters: unit not given beside the values
S. pyogenes ATCC 19615 = assay: MIC; format: cell-based; conditions: in µg/mL
H. influenzae ATCC 49247 = assay: MIC; format: cell-based
U937 cells [6] = conditions: H2O2-induced insensitivity on TNF-α-induced IL-8 production; cited from earlier work
PBMCs from COPD patients = conditions: PBMCs obtained from COPD patients; cited from earlier work
MMP9 [7] = conditions: macrophages in sputum of COPD patients; cited from earlier work
HDAC2 = conditions: reduced by oxidative stress; cited from earlier work
U937 cells [8] = assay: H2O2-induced steroid insensitivity in U937 cells (dexamethasone IC50 on TNFα-induced IL-8); format: cell-based, human; conditions: highest concentration tested (100 μM); H2O2 200 μM
Procedure: Cytokine ELISA. LPS-induced IL-8, TNFα concentrations and TNFα-induced IL-8 concentrations are determined by sandwich ELISA according to the manufacturer's instructions (R&D Systems Europe). IC50 values for dexamethasone on IL-8 production are calculated using the computer program Prism 4.0 (GraphPad Software Inc., San Diego, Calif.) as a marker for steroid sensitivity.
Restoration of steroid sensitivity. U937 cells: U937 are treated with oxidative stress (H2O2, 200 μM or 0.15 dilution CSM (cigarette smoke conditioned medium)) and 4 hours later, stimulated with TNFα (10 ng/ml) in the presence of dexamethasone (10^−11-10^−6M). Supernatant and cells are collected 24 hrs after stimulation and IL-8 is measured by conventional ELISA. As the index of corticosteroid sensitivity, IC50 of dexamethasone is calculated. Test compounds are treated 20 min before oxidative stress treatment.
Effects of compounds on H2O2-induced steroid insensitivity in U937 cells. Cells stimulated with H2O2 (200 μM) overnight are incubated with compounds described herein for 30 min under H2O2 (200 μM) exposure. The cells are treated with dexamethasone (10^−11 to 10^−6 M) for 20 min, followed by the TNFα stimulation overnight. TNFα-induced IL-8 release is evaluated by ELISA and IC50 values for dexamethasone on IL-8 production are calculated using Prism. Data are expressed as fold changes against positive control treated with H2O2 only. Values represent means of four experiments±SEM. H2O2 exposure reduces dexamethasone sensitivity by approximately 4 fold based on calculated IC50 values of TNFα-induced IL-8 production.

Akt = assay: H2O2-induced phosphorylation of Akt in PMA-differentiated U937 cells (western blot); format: cell-based, human; conditions: PMA-differentiated U937; H2O2 1 mM 30 min
Procedure, shortened: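 PMA-differentiated U937 macrophage-like cells pretreated with compound 20 min, then stimulated with 1 mM H2O2 for 30 min. pAkt measured by western blot densitometry, normalised to total protein and expressed as fold change versus H2O2-only control; mean ± SEM of 3–4 experiments.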

HDAC2 mRNA = assay: Cigarette smoke extract-induced reduction of HDAC2 mRNA in A549 cells; format: cell-based, human; conditions: A549; CSE
Procedure: Preparations of cigarette smoke extract. To prepare the cigarette smoke extract, two full-strength Marlboro cigarettes (filters removed; Phillip Morris USA, Richmond, Va.) are combusted through a modified 60-ml syringe apparatus, and the smoke passed through 20 ml of DMEM medium. Each cigarette generally yields five draws of the syringe (to the 60-ml mark), with each individual draw taking approximately 10 s to complete. Cigarette smoke extract is then passed through a 0.20-μm filter to sterilize and remove particulate matter and is used immediately unless otherwise stated.
Quantitative RT-PCR. Total RNA extraction and reverse transcription are performed using an RNeasy kit (QIAGEN, Crawley, UK) and a High-Capacity cDNA Reverse Transcription Kits (Applied Biosystems, Foster City, Calif.). Gene transcript level of HDAC2 (HS00231032_M1, Applied Biosystems, California, USA) and the house-keeping gene, guanine nucleotide binding protein beta polypeptide-2-like 1 (GNB2L1) (HS00272002_M1, Applied Biosystems) are quantified by real-time PCR using a TaqMan® Gene Expression Master Mix (Applied Biosystems) on a Rotor-Gene 6000 (Corbett Research, Cambridge, UK). Transcripts are analysed by the delta (D) CT method and variations in cDNA concentrations between different samples were corrected using GNB2L1.
Effects of macrolides on cigarette smoke extract-induced (CSE-induced) reduction of HDAC2 mRNA in A549 cells. Cells pretreated with compounds described herein for 30 min are exposed to CSE (0.15 O.D.) for 1 hr. The cells are washed twice and incubated with medium only for 4 hrs. Data are expressed as % reduction from baseline (left) or % increase from baseline under H2O2. Values represent means of three experiments±SEM. Example 33 reverses cigarette smoke extract-induced (CSE-induced) reduction of HDAC2 mRNA expression in A549 cells at concentrations of about 10 μM or greater, and with statistical significance of p<0.05 versus treatment with CSE only (one-way ANOVA with post hoc test, n=3) at doses of about 30 μM or greater.

A/J mice exposed to LPS = assay: Anti-inflammatory activity in vivo: A/J mice exposed to LPS intranasally; conditions: intranasal, 1 hr before LPS challenge
S. pyogenes ATCC 1721 = assay: MIC; format: cell-based
S. pneumoniae 163 (MefA) = assay: MIC; format: cell-based; conditions: in µg/mL
[9] = system: S. pneumoniae 3773 (ErmB); assay: MIC; format: cell-based
S. pneumoniae 303 (ErmB) = assay: MIC; format: cell-based

CCC1OC(=O)C(C)C(OC2OCC(O)C(NC)C2O)C(C)C(OC2OC(C)CC(N(C)C)C2O)C(C)(O)CC(C)CN(C(C)=O)C(C)C2OC(=O)OC12C (mixture of isomers) [Example 32]
TNFα inhibition (%) (TNFα): 73%
MIC E. faecalis ATCC 29212 (E. faecalis ATCC 29212): 32 µg/mL
MIC K. pneumonia 13883 (K. pneumonia 13883): >64
Cell Toxicity (% cell death) [1]: 11%
MMP9 inhibition (%) (MMP9 [2]): 40 (49) %
IL-8 inhibition (%) (IL-8): 55%
MIC E. coli ATCC 25922 (E. coli ATCC 25922): >64
MIC S. aureus ATCC 29213 (MSSA) MLS-S [3]: 32 µg/mL
MIC S. typhimurium ATCC 14028 [4]: >64
restoration of H2O2-reduced HDAC activity (%) (HDAC activity): 79 (65) %
MIC S. pneumoniae ATCC 49619 (S. pneumoniae ATCC 49619): 32 µg/mL
MIC P. aeruginosa ATCC 27853 (P. aeruginosa ATCC 27853): > 64 µg/mL

CCC1OC(=O)C(C)C(OC2OCC(O)C(N(C)C)C2O)C(C)C(OC2OC(C)CC(N(C)C)C2O)C(C)(O)CC(C)CN(C(C)=O)C(C)C2OC(=O)OC12C (mixture of isomers) [Example 40]
MIC N. gonorrhoeae ATCC 49226 [5]: 8 and 16
TNFα inhibition (%) (TNFα): 68%
MIC S. pyogenes ATCC 19615 (S. pyogenes ATCC 19615): >64
MIC E. faecalis ATCC 29212 (E. faecalis ATCC 29212): 32 µg/mL
MIC K. pneumonia 13883 (K. pneumonia 13883): >64
Cell Toxicity (% cell death) [1]: 26%
MMP9 inhibition (%) (MMP9 [2]): 60 (38) %
IL-8 inhibition (%) (IL-8): 93%
MIC E. coli ATCC 25922 (E. coli ATCC 25922): >64
MIC S. aureus ATCC 29213 (MSSA) MLS-S [3]: 16 µg/mL
MIC S. typhimurium ATCC 14028 [4]: >64
restoration of H2O2-reduced HDAC activity (%) (HDAC activity): 26%
MIC S. pneumoniae ATCC 49619 (S. pneumoniae ATCC 49619): 64 µg/mL
MIC P. aeruginosa ATCC 27853 (P. aeruginosa ATCC 27853): > 64 µg/mL
MIC H. influenzae ATCC 49247 (H. influenzae ATCC 49247): > 64 µg/mL

CC[C@H]1OC(=O)[C@H](C)[C@@H](O[C@H]2C[C@@](C)(OC)[C@@H](O)[C@H](C)O2)[C@H](C)[C@@H](O[C@@H]2O[C@H](C)C[C@H](N(C)C)[C@H]2O)[C@](C)(O)C[C@@H](C)C(=O)[C@H](C)[C@@H](O)[C@]1(C)O [ERY, erythromycin]
inhibition of LPS-induced TNFα release compared with Example 33 (TNFα; LPS 100 ng/ml 4 hrs): did not show any inhibition at any concentration tested
restoration of corticosteroid sensitivity (reported) (U937 cells [6]): restore corticosteroid sensitivity
inhibition of LPS-induced IL-8 release compared with Example 33 (IL-8; LPS 100 ng/ml 4 hrs): did not show any inhibition at any concentration tested
restoration of corticosteroid sensitivity (reported) (PBMCs from COPD patients): restore corticosteroid sensitivity
MMP9 expression (reported) (MMP9 [7]): inhibited MMP9 expression
HDAC2 promoter activity and protein expression (reported) (HDAC2): restore HDAC2 promoter activity and protein expression
restoration of dexamethasone sensitivity (U937 cells [8]): None of ERY, CLR, or AZI restored dexamethasone sensitivity
restoration of HDAC activity compared with Example 33 (HDAC activity; PMA-differentiated U937, H2O2 200 μM 4 hrs): only at much higher doses than Example 33
HDAC activity reached compared with untreated controls (HDAC activity; PMA-differentiated U937, H2O2 200 μM, comparators at highest doses tested): only restore HDAC activity to levels comparable to untreated controls
inhibition of Akt phosphorylation compared with Example 33 (Akt): at comparable concentrations
reversal of HDAC mRNA expression reduction compared with Example 33 (HDAC2 mRNA): only at much higher doses than Example 33
anti-inflammatory action in LPS-exposed A/J mice (A/J mice exposed to LPS): have anti-inflammatory action

CC[C@H]1OC(=O)[C@H](C)C(=O)[C@H](C)[C@@H](O[C@@H]2O[C@H](COC(=O)c3ccccc3)[C@@H](N)[C@@H]2O)[C@@](C)(OC)C[C@@H](C)C(=O)[C@H](C)[C@H]2N(CCCCn3cc(-c4ccccn4)nn3)C(=O)O[C@]12C [Example 26]
TNFα inhibition (%) (TNFα): −25%
MIC S. pyogenes ATCC 1721 (S. pyogenes ATCC 1721): > 64 µg/mL
Cell Toxicity (% cell death) [1]: −2%
MMP9 inhibition (%) (MMP9 [2]): 2%
IL-8 inhibition (%) (IL-8): −51%
MIC S. pneumoniae 163 (MefA) (S. pneumoniae 163 (MefA)): 64
restoration of H2O2-reduced HDAC activity (%) (HDAC activity): 92%
MIC S. pneumoniae 3773 (ErmB) [9]: > 64 µg/mL
MIC S. pneumoniae ATCC 49619 (S. pneumoniae ATCC 49619): 32 µg/mL (≈ 35.9 µM)
MIC H. influenzae ATCC 49247 (H. influenzae ATCC 49247): > 64 µg/mL

CC[C@H]1OC(=O)[C@@](C)(F)C(=O)[C@H](C)[C@@H](O[C@@H]2O[C@H](C)[C@@H](OC(=O)Nc3ccccc3)[C@H](N(C)C)[C@H]2O)[C@@](C)(OC)C[C@@H](C)C(=O)[C@H](C)[C@H]2N(CCCCn3cc(-c4ccccn4)nn3)C(=O)O[C@]12C [Example 27]
TNFα inhibition (%) (TNFα): 34%
MIC S. pneumoniae 303 (ErmB) (S. pneumoniae 303 (ErmB)): > 64 µg/mL
MIC S. pyogenes ATCC 1721 (S. pyogenes ATCC 1721): > 64 µg/mL
Cell Toxicity (% cell death) [1]: −7%
MMP9 inhibition (%) (MMP9 [2]): 1%
IL-8 inhibition (%) (IL-8): −43%
MIC S. pneumoniae 163 (MefA) (S. pneumoniae 163 (MefA)): 8
restoration of H2O2-reduced HDAC activity (%) (HDAC activity): 75%
MIC S. pneumoniae 3773 (ErmB) [9]: > 64 µg/mL
MIC S. pneumoniae ATCC 49619 (S. pneumoniae ATCC 49619): 32 µg/mL (≈ 33.1 µM)
MIC H. influenzae ATCC 49247 (H. influenzae ATCC 49247): > 64 µg/mL
